Laboratory results as given in patent US10858388B2, “Selective progesterone receptor modulator (SPRM) regimen” (BAYER PHARMA AKTIENGESELLSCHAFT, priority 2015, dated 2020).

Experiments:
[1] = test system: subjects with uterine fibroids; assay: Study 15788: endometrial thickness by transvaginal ultrasound, 3-month treatment (Example 3); assay type: in vivo, human; conditions: 12 weeks
Method: A randomized, parallel-group, double-blind, placebo-controlled, multi-center study to assess efficacy of different doses of Compound 1 where primary efficacy variable is Endometrium thickness and secondary efficacy variable is PAEC in subjects with uterine fibroids over a 3-month treatment [1×12 weeks/84 days]
Doses: 0.5 mg, 1 mg, 2 mg, or 4 mg once daily
Route of administration: Oral
Duration of treatment: 1×12 weeks (84 days)
Women, 18 to 50 years old, with uterine fibroids documented by transvaginal or abdominal ultrasound at screening with at least 1 uterine fibroid with largest diameter 3 cm and heavy menstrual bleeding (HMB) 80 ml were eligible for enrolment in the study.
Eligible subjects were equally randomized to one of the treatment groups (Placebo, 0.5 mg, 1 mg, 2 mg, or 4 mg Compound 1). Treatment started during the first week of the menstrual cycle following randomization. The treatment period consisted of 12 weeks (84 days) of daily tablet intake.
Efficacy Measurement: • endometrial biopsies • cervical smear • transvaginal ultrasound TVU (endometrial thickness, ovaries)
Subjects that were detected with endometrial thickness (double layer)>18 mm (or suspicious bleeding pattern, e.g. continuous spotting, unusually heavy bleeding), were immediately evaluated by an additional endometrial biopsy.

[2] = test system: patient diagnosed with Uterine Fibroids; assay: Long term treatment of patients with Compound 1, summary findings; assay type: in vivo, human
Description: Compound 1 is a potent Selective Progesterone Receptor Modulator (SPRM) and more particularly a competitive Progesterone Receptor (PR) antagonist creating alternatives for the treatment of Uterine Fibroids. […] Amenorrhea corresponds to the major objective of the treatment i.e. control of excessive uterine bleeding.

C[C@]12C[C@H](c3ccc(S(C)(=O)=O)cc3)C3=C4CCC(=O)C=C4CC[C@H]3[C@@H]1CC[C@@]2(O)C(F)(F)C(F)(F)F [Compound 1, (11β,17β)-17-Hydroxy-11-[4-(methylsulphonyl)phenyl]-17-(pentafluoroethyl)estra-4,9-dien-3-one]
Endometrial thickness at EoT, max ([1]; 0.5 mg once daily oral): (27.0, 5.2) mm
Subjects with maximum endometrium thickness >18 mm, (%) ([1]; 0.5 mg once daily oral): (3.4) %
Median endometrial thickness at EoT ([1]; 0.5 mg once daily oral, n = 57): 9.0 mm
Endometrial thickness at EoT, max ([1]; 1 mg once daily oral): (41.0, 7.0) mm
Subjects with maximum endometrium thickness >18 mm, (%) ([1]; 1 mg once daily oral): (12.5) %
Median endometrial thickness at EoT ([1]; 1 mg once daily oral, n = 56): 10.0 mm
Endometrial thickness at EoT, max ([1]; 2 mg once daily oral): (27.0, 4.7) mm
Subjects with maximum endometrium thickness >18 mm, (%) ([1]; 2 mg once daily oral): (3.5) %
Median endometrial thickness at EoT ([1]; 2 mg once daily oral, n = 58): 7.5 mm
Endometrial thickness at EoT, max ([1]; 4 mg once daily oral): (20.0, 4.9) mm
Median endometrial thickness at EoT ([1]; 4 mg once daily oral, n = 56): 8.5 mm
Trend in endometrial thickness under treatment ([1]; 0.5-4 mg once daily): no clear trend for an increase
Amenorrhea [2]: observed at early stage and with high intensity
Endometrial hypertrophy (TEAE) [2]: no endometrial hypertrophy was reported
Major safety findings [2]: no major safety findings were reported
Ovulation inhibition [2]: ovulation inhibition was observed
Pelvic pain [2]: found to be reduced
Uterine fibroids size [2]: clearly reduced
